Data reported in US12655156B2, “Oxadiazolopyrazines and oxadiazolopyridines useful as mitochondrial uncouplers” (Virginia Tech Intellectual Properties, Inc., priority 2018, dated 2026).

system: whole cells (NMuLi, C2C12, and L6 cells, isolated cardiomyocytes, human primary fibroblasts); test: Oxygen consumption rate (OCR) in whole cells, Seahorse XF-24 Flux Analyzer; format: cell-based; conditions: increase in OCR; binned EC50 values
Outline: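 NMuLi, C2C12 and L6 cells (3.5×10^4/well), cardiomyocytes (4×10^4/well) and human primary fibroblasts (1.1×10^4/well) adhered 24 h, then equilibrated 30 min at 37° C in unbuffered DMEM with pyruvate and glutamine, pH 7.4. Compounds injected during run; OCR read over 2 min periods. EC50 for OCR increase, binned.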

Row | Compound | EC50
1 | Oc1nc2nonc2nc1Nc1ccc(-c2ccc(F)cc2)cc1 [1-112, 6-((4′-fluoro-[1,1′-biphenyl]-4-yl)amino)-[1,2,5]oxadiazolo[3,4-b]pyrazin-5-ol] | ≤ 5 µM
2 | Oc1nc2nonc2nc1Nc1cccc(-c2ccc3c(c2)OC(F)(F)O3)c1 [1-126, 6-((3-(2,2-difluorobenzo[d][1,3]dioxol-5-yl)phenyl)amino)-[1,2,5]oxadiazolo[3,4-b]pyrazin-5-ol] | ≤ 5 µM
3 | O=C1c2ccccc2-c2ccc(Nc3nc4nonc4nc3O)cc21 [1-127, 2-((6-hydroxy-[1,2,5]oxadiazolo[3,4-b]pyrazin-5-yl)amino)-9H-fluoren-9-one] | > 20 µM
4 | COc1cc(-c2ccc(Nc3nc4nonc4nc3O)cc2)ccc1F [1-128, 6-((4′-fluoro-3′-methoxy-[1,1′-biphenyl]-4-yl)amino)-[1,2,5]oxadiazolo[3,4-b]pyrazin-5-ol] | > 20 µM
5 | N#Cc1cc(-c2ccc(Nc3nc4nonc4nc3O)cc2)ccc1F [1-129, 4-fluoro-4′-((6-hydroxy-[1,2,5]oxadiazolo[3,4-b]pyrazin-5-yl)amino)-[1,1′-biphenyl]-3-carbonitrile] | 5 to 20 µM
6 | Oc1nc2nonc2nc1Nc1ccc(-c2ccc(C(F)(F)F)cc2)cc1 [1-130, 6-((4′-(trifluoromethyl)-[1,1′-biphenyl]-4-yl)amino)-[1,2,5]oxadiazolo[3,4-b]pyrazin-5-ol] | 5 to 20 µM
7 | Oc1nc2nonc2nc1Nc1cccc(-c2ccc(C(F)(F)F)cc2)c1 [1-131, 6-((4′-(trifluoromethyl)-[1,1′-biphenyl]-3-yl)amino)-[1,2,5]oxadiazolo[3,4-b]pyrazin-5-ol] | ≤ 5 µM
8 | Cc1ccc(-c2cccc(Nc3nc4nonc4nc3O)c2)cc1 [1-132, 6-((4′-methyl-[1,1′-biphenyl]-3-yl)amino)-[1,2,5]oxadiazolo[3,4-b]pyrazin-5-ol] | ≤ 5 µM
9 | Oc1nc2nonc2nc1Nc1cccc(-c2ccc(Cl)cc2)c1 [1-133, 6-((4′-chloro-[1,1′-biphenyl]-3-yl)amino)-[1,2,5]oxadiazolo[3,4-b]pyrazin-5-ol] | ≤ 5 µM
10 | Oc1nc2nonc2nc1Nc1cccc(-c2ccc(F)cc2)c1 [1-134, 6-((4′-fluoro-[1,1′-biphenyl]-3-yl)amino)-[1,2,5]oxadiazolo[3,4-b]pyrazin-5-ol] | ≤ 5 µM
11 | Oc1nc2nonc2nc1Nc1cccc(-c2cccc(C(F)(F)F)c2)c1 [1-135, 6-((3′-(trifluoromethyl)-[1,1′-biphenyl]-3-yl)amino)-[1,2,5]oxadiazolo[3,4-b]pyrazin-5-ol] | ≤ 5 µM
12 | Oc1nc2nonc2nc1Nc1cccc(-c2ccc(OC(F)(F)F)cc2)c1 [1-136, 6-((4′-(trifluoromethoxy)-[1,1′-biphenyl]-3-yl)amino)-[1,2,5]oxadiazolo[3,4-b]pyrazin-5-ol] | ≤ 5 µM
13 | COc1cccc(-c2ccc(Nc3nc4nonc4nc3O)cc2)c1 [1-137, 6-((3′-methoxy-[1,1′-biphenyl]-4-yl)amino)-[1,2,5]oxadiazolo[3,4-b]pyrazin-5-ol] | ≤ 5 µM
14 | CC(=O)COc1nc2nonc2nc1Nc1ccc(-c2ccc(F)cc2)cc1 [1-190, 1-((6-((4′-fluoro-[1,1′-biphenyl]-4-yl)amino)-[1,2,5]oxadiazolo[3,4-b]pyrazin-5-yl)oxy)propan-2-one] | ≤ 5 µM
15 | O=C(Nc1nc2nonc2nc1OCc1ccccc1)c1ccc(C(F)(F)F)cc1 [1-196, N-(6-(benzyloxy)-[1,2,5]oxadiazolo[3,4-b]pyrazin-5-yl)-4-(trifluoromethyl)benzamide] | 5 to 20 µM
16 | Oc1nc2nonc2nc1Nc1ccc(C2CCCCC2)cc1 [1-205, 6-((4-cyclohexylphenyl)amino)-[1,2,5]oxadiazolo[3,4-b]pyrazin-5-ol] | ≤ 5 µM
17 | O=[N+]([O-])c1cccc(Nc2nc3nonc3nc2O)c1 [1-206, 6-((3-nitrophenyl)amino)-[1,2,5]oxadiazolo[3,4-b]pyrazin-5-ol] | > 20 µM
18 | Oc1nc2nonc2nc1Nc1ccc(C(F)(F)F)nc1 [1-208, 6-((6-(trifluoromethyl)pyridin-3-yl)amino)-[1,2,5]oxadiazolo[3,4-b]pyrazin-5-ol] | > 20 µM
19 | Oc1nc2nonc2nc1NC1CCCCC1 [1-212, 6-(cyclohexylamino)-[1,2,5]oxadiazolo[3,4-b]pyrazin-5-ol] | > 20 µM
20 | COc1nc2nonc2cc1Nc1ccc(-c2ccc(C(F)(F)F)nc2)cc1 [1-225, 5-methoxy-N-(4-(6-(trifluoromethyl)pyridin-3-yl)phenyl)-[1,2,5]oxadiazolo[3,4-b]pyridin-6-amine] | > 20 µM
21 | Oc1nc2nonc2cc1Nc1cccc(OC(F)(F)F)c1 [1-229, 6-((3-(trifluoromethoxy)phenyl)amino)-[1,2,5]oxadiazolo[3,4-b]pyridin-5-ol] | 5 to 20 µM
22 | Oc1nc2nonc2cc1Nc1ccc(OC(F)(F)F)c(F)c1 [1-230, 6-((3-fluoro-4-(trifluoromethoxy)phenyl)amino)-[1,2,5]oxadiazolo[3,4-b]pyridin-5-ol] | > 20 µM
23 | Oc1nc2nonc2cc1Nc1cccc(C(F)(F)F)c1F [1-232, 6-((2-fluoro-3-(trifluoromethyl)phenyl)amino)-[1,2,5]oxadiazolo[3,4-b]pyridin-5-ol] | > 20 µM
24 | Oc1nc2nonc2cc1Nc1cccc(C(F)(F)F)c1 [1-234, 6-((3-(trifluoromethyl)phenyl)amino)-[1,2,5]oxadiazolo[3,4-b]pyridin-5-ol] | > 20 µM
25 | Oc1nc2nonc2cc1Nc1ccc(C(F)(F)F)cc1 [1-242, 6-((4-(trifluoromethyl)phenyl)amino)-[1,2,5]oxadiazolo[3,4-b]pyridin-5-ol] | > 20 µM
26 | Oc1nc2nonc2cc1Nc1cc(C(F)(F)F)cc(C(F)(F)F)c1 [1-243, 6-((3,5-bis(trifluoromethyl)phenyl)amino)-[1,2,5]oxadiazolo[3,4-b]pyridin-5-ol] | ≤ 5 µM
27 | Oc1nc2nonc2cc1Nc1cccc(F)c1F [1-250, 6-((2,3-difluorophenyl)amino)-[1,2,5]oxadiazolo[3,4-b]pyridin-5-ol] | ≤ 5 µM
28 | Oc1nc2nonc2cc1Nc1ccc(OC(F)(F)F)cc1F [1-251, 6-((2-fluoro-4-(trifluoromethoxy)phenyl)amino)-[1,2,5]oxadiazolo[3,4-b]pyridin-5-ol] | ≤ 5 µM

system: Male C57BL/6J mice on western diet; test: Diet induced obesity reversal mouse study; format: in vivo; conditions: WD containing 1-112, ~60 mg/kg/day, after 28 days of WD
Source text: FIGS. 2A-2C. Diet induced obesity reversal data, for mice given a regular chow diet, a Western diet, or a Western diet plus compound 1-112. FIG. 2A, Body mass versus time; FIG. 2B, fat mass (measured by EchoMRI) versus time; FIG. 2C, food intake (last 14 days) versus time.
Male C57BL/6J mice aged 3 months were assigned to either normal chow diet (Chow, n=5) or western diet (WD, n=10) for 28 days. After 28 days half of the WD group were switched to WD containing compound 1-112 at a concentration resulting in consumption of ˜60 mg/kg/day 1-112 (1-112 60 mpk). Body mass (A), fat mass (measured by EchoMRI (B)), and food intake (C, for the final 14 days) were recorded as indicated.

Row | Compound | Body mass | Fat mass (measured by EchoMRI)
29 | Oc1nc2nonc2nc1Nc1ccc(-c2ccc(F)cc2)cc1 [1-112, 6-((4′-fluoro-[1,1′-biphenyl]-4-yl)amino)-[1,2,5]oxadiazolo[3,4-b]pyrazin-5-ol] | lost body weight | lost body weight and fat mass

same assay, conditions: WD containing 1-112, ~60 mg/kg/day; final 14 days

Row | Compound | Food intake
30 | Oc1nc2nonc2nc1Nc1ccc(-c2ccc(F)cc2)cc1 [1-112, 6-((4′-fluoro-[1,1′-biphenyl]-4-yl)amino)-[1,2,5]oxadiazolo[3,4-b]pyrazin-5-ol] | without a significant change in food intake

system: humans; test: not given; conditions: patients consuming ~300 mg/d, over several months, without changes in food intake; cited from earlier work

Row | Compound | Average weight loss
31 | O=[N+]([O-])c1ccc(O)c([N+](=O)[O-])c1 [DNP, 2,4-dinitrophenol] | 1.5 pounds per week
